# Measured values reported in EP2027772A1, “Skin-friendly insect repellent” (Beiersdorf AG, priority 2007, dated 2009).
# Assay: Octanol/water partition coefficient (log P), shake-flask with UV spectroscopy; alternatively calculated by Hansch and Leo
# Details: not given
row,SMILES,Log P-Wert
1,"CC(C)(CO)CO [Neopentanediol, Neopentyleme Glyol]","-0,3"

# Same assay, conditions: n-Octanol/Wasser
row,SMILES,Log P-Wert
1,"CC(O)CO (stereo not drawn) [1,2 Propandiol]","-1,3"
2,"OCCCCO [Butane-1,4diol, Tetramethylene Glucol]",-1

# Assay: physchem
# Details: not given
row,SMILES,logP
1,"OCC(CO)(CO)CO [2,2 Bishydroxymethyl 1,3 Propanediol]",-2.4
2,"CCC(CO)(CO)CO [2-Ethyl-2-Hydroxymethyl 1,3 Propandiol]",-0.8
3,"OCCCCCO [1,5 Pentandiol]",-0.6
4,"CCCCC(CC)COCC(O)CO (stereo not drawn) [3-[(2-Ethylhexyl)oxy]-1,2 propandiol]",2.1
5,"OCCCCCCO [1,6 Hexandiol]",-0.1
6,"CC(O)CCO (stereo not drawn) [1,3 Butandiol]",-0.7

# Same assay, conditions: n-octanol/water
row,SMILES,logP
1,"CCCCCCCCC(O)CO (stereo not drawn) [1,2-Decandiol]",2.4
2,"COCC(O)COC [1,3-Dimethoxy-2-propanol]",-0.5
3,"CCCCCC(O)CO (stereo not drawn) [1,2 Heptanediol]",1.5
4,"CCCCCCCC(O)CO (stereo not drawn) [1,2 Nonanediol]",2.5
5,"CC(C)(O)CCO [3-Methyl 1,3 Butanediol]",-0.3
6,"CC(CO)CO [2-Methyl-1,3-Propanediol]",-0.7
7,"CCCCCC(O)C(O)CO (stereo not drawn) [1,2,3 Octanetriol]",0.15
8,"CCCC(O)CO (stereo not drawn) [1,2 Pentandiol]",-0.3
9,"CC(O)CC(C)(C)O (stereo not drawn) [2-Methyl-2,4 Pentandiol]",0
10,"CCC(CO)(CO)COCC(CC)(CO)CO [3,3,7,7 Tetrahydroxymethyl 5 oxanonan]",-0.3
11,"CCCCCCC(O)CO (stereo not drawn) [1,2 Octandiol]",1.3
12,"CCCCC(O)CO (stereo not drawn) [1,2 Hexandiol]",1
